Test: R1 relaxivity determination (T1 relaxometry, slope of 1/T1 vs. Gd concentration)
Format: physicochemical
Details: 1.41 T (60 MHz), 40° C.
Procedure: Instrumentation. Dynamic light scattering (DLS) measurements were performed on a Zetasizer Nano from Malvern Instruments. The scattering angle was held constant at 90°. Microscopy measurements were performed on an Olympus IX 81 motorized inverted fluorescence microscope equipped with an Andor DU897 EMCCD, an X-Cite 120 excitation source (EXFO) and Sutter excitation and emission filter wheels. Image of FITC was acquired using the filter set HQ480/40, HQ535/50, Q505LP. Filter set was purchased from Chroma. Tl-relaxation times were determined using a Bruker mq60 MR relaxometer operating at 1.41 T (60 MHz). ICP-AES was performed by VHG Laboratories (Manchester, N.H.). Transmission electron microscopy (TEM) was performed with a JEOL 2010 electron microscope operated at 80 kV.
To assess the paramagnetic properties of the Gd-conjugated DNCs, the amount of Gd within the sample was determined by inductively coupled plasma atomic emission spectroscopy (ICP-AES). Tl-relaxation times were determined using a Bruker mq60 MR relaxometer operating at 1.41 T (60 MHz) and at 40° C. […] It is likely that only a marginal increase in R1 was observed, despite the larger size of DNCs, due to the “saturation” of ion relaxivity, which has also previously been reported for high generation dendrimers. As a point of comparison, Gd-DTPA was determined to have an R1 of 3.9 mM^−1 s^−1 per Gd.

For `O=C([O-])CN(CCN(CC(=O)[O-])CC(=O)O)CCN(CC(=O)[O-])CC(=O)O.[Gd+3]` [Gd-DTPA], the “R1 relaxivity per Gd” value was 3.9 mM⁻¹ s⁻¹.

Reference: patent US20120219496A1, “GADOLINIUM-LINKED NANOCLUSTERS” (priority 2009, published 2012)
